According to patent publication US12486287B2, “Solid forms of a promoter of spinogenesis” (Spinogenix, Inc., priority 2019, dated 2025):

Tests used:
[1] = Solid state stability evaluation (XRPD, PLM, HPLC purity after storage); type: physicochemical; details: for Purity (Area %): HPLC; for Form Change: XRPD
Protocol: Agilent 1260 HPLC with VWD detector was utilized and detailed chromatographic conditions for purity analysis are listed ill Table 1-4.
The solid state stability of Compound I was evaluated under conditions of 30° C./65% RH (open dish and closed container) and 40° C./75% RH (open dish and closed container) for 4 weeks. The detailed procedures utilized for stability evaluation are listed: 1) Weighed about 10 mg of Compound I starting material into 3-mL glass vials; 2) For the open dish conditions, covered the vials with Parafilm® and poked 6 holes. For the closed conditions, sealed the vials with caps and kept the vials in the corresponding conditions, respectively; For the condition of 40° C./75% RH, placed the vials in the stability chamber of 40° C./75% RH; For the condition of 30° C./65% RH, placed the vials in the airtight atmosphere generated by saturated aqueous potassium iodide solution in 30° C. bio-chemical; 4) Samples taken for XRPD, PLM, and HPLC purity after 3 days, 1 week, 2 weeks and 4 weeks.
Solid state stability evaluation of Compound I Form I starting material was performed under conditions of 30° C./65% RH (closed and open) and 40° C./75% RH (closed and open). X-ray powder diffraction (XRPD), polarizing microscope (PLM) and HPLC purity were characterized at 4 sampling points (3 days, 1 week, 2 weeks, 4 weeks).
For the single crystal structure determination, 83 single crystal growth experiments were performed by different methods including slow evaporation, liquid vapor diffusion, slow cooling, heating-cooling and solvent-thermal synthesis. The stability evaluation experiments in 40° C./75% RH condition were performed using stability chamber, while the 30° C./65% RH condition was set up by saturated aqueous potassium iodide solution in 30° C. bio-chemical incubator.

[2] = Dynamic vapor sorption (DVS); type: physicochemical
Protocol: DVS was measured via a SMS (Surface Measurement Systems) DVS Intrinsic. The relative humidity at 25° C. were calibrated against deliquescence point of LiCl, Mg(NO3)2 and KCl.
Compound I starting material was the delivered sample. The starting material was characterized by XRPD, thermo-gravimetric analysis (TGA), differential scanning calorimetry (DSC), PLM and dynamic vapor sorption (DVS).

[3] = 30° C./65% RH, closed container, 1 week
[4] = 30° C./65% RH, closed container, 2 weeks
[5] = 30° C./65% RH, closed container, 4 weeks
[6] = 30° C./65% RH, closed container, 3 days
[7] = 30° C./65% RH, open dish, 1 week
[8] = 30° C./65% RH, open dish, 2 weeks
[9] = 30° C./65% RH, open dish, 4 weeks
[10] = 30° C./65% RH, open dish, 3 days
[11] = 40° C./75% RH, closed container, 1 week
[12] = 40° C./75% RH, closed container, 2 weeks
[13] = 40° C./75% RH, closed container, 4 weeks
[14] = 40° C./75% RH, closed container, 3 days
[15] = 40° C./75% RH, open dish, 1 week
[16] = 40° C./75% RH, open dish, 2 weeks
[17] = 40° C./75% RH, open dish, 4 weeks
[18] = 40° C./75% RH, open dish, 3 days

OCCOCCOCCOCCOc1ccc(-c2nc3ccccc3s2)cc1 [Compound I Form I, 2-(2-(2-(2-(4-(benzo[d]thiazol-2-yl)phenoxy)ethoxy)ethoxy)ethoxy)ethan-1-ol]
HPLC purity decrease after storage ([1]; 30° C./65% RH and 40° C./75% RH, open and closed, 4 weeks): No form change and significant HPLC purity decrease were observed | Form change after storage (XRPD) ([1]; 30° C./65% RH and 40° C./75% RH, open and closed, up to 4 weeks): No form change | Purity/Initial (%) [1, 3]: 100.0% | Purity (Area %) [1, 3]: 99.66 Area % | Form Change [1, 3]: No | Purity/Initial (%) [1, 4]: 100.0% | Purity (Area %) [1, 4]: 99.64 Area % | Form Change [1, 4]: No | Purity/Initial (%) [1, 5]: 100.0% | Purity (Area %) [1, 5]: 99.66 Area % | Form Change [1, 5]: No | Purity/Initial (%) [1, 6]: 100.0% | Purity (Area %) [1, 6]: 99.68 Area % | Form Change [1, 6]: No | Purity/Initial (%) [1, 7]: 100.0% | Purity (Area %) [1, 7]: 99.66 Area % | Form Change [1, 7]: No | Purity/Initial (%) [1, 8]: 100.0% | Purity (Area %) [1, 8]: 99.63 Area % | Form Change [1, 8]: No | Purity/Initial (%) [1, 9]: 100.0% | Purity (Area %) [1, 9]: 99.66 Area % | Form Change [1, 9]: No | Purity/Initial (%) [1, 10]: 100.0% | Purity (Area %) [1, 10]: 99.69 Area % | Form Change [1, 10]: No | Purity/Initial (%) [1, 11]: 100.0% | Purity (Area %) [1, 11]: 99.66 Area % | Form Change [1, 11]: No | Purity/Initial (%) [1, 12]: 99.8% | Purity (Area %) [1, 12]: 99.45 Area % | Form Change [1, 12]: No | Purity/Initial (%) [1, 13]: 100.0% | Purity (Area %) [1, 13]: 99.65 Area % | Form Change [1, 13]: No | Purity/Initial (%) [1, 14]: 100.1% | Purity (Area %) [1, 14]: 99.76 Area % | Form Change [1, 14]: No | Purity/Initial (%) [1, 15]: 100.0% | Purity (Area %) [1, 15]: 99.66 Area % | Form Change [1, 15]: No | Purity/Initial (%) [1, 16]: 100.0% | Purity (Area %) [1, 16]: 99.63 Area % | Form Change [1, 16]: No | Purity/Initial (%) [1, 17]: 100.0% | Purity (Area %) [1, 17]: 99.65 Area % | Form Change [1, 17]: No | Purity/Initial (%) [1, 18]: 99.9% | Purity (Area %) [1, 18]: 99.61 Area % | Form Change [1, 18]: No | Form change after DVS test (XRPD) ([2]; 25° C., 0% RH-95% RH-0% RH): No form change was observed | Water uptake (DVS) ([2]; 25° C./80% RH): 0.64% | Water uptake (DVS) ([2]; 25° C./95% RH): 21.43%
